Reference: ChEMBL document CHEMBL3994622, “Design and synthesis of new RAF kinase-inhibiting antiproliferative quinoline derivatives. Part 2: Diarylurea derivatives” (Eur J Med Chem, 2017)

What was measured:
[1] = tested on: EKVX; assay: Growth inhibition of human EKVX cells assessed as cell growth at 0.005 uM incubated for 48 hrs by sulforhodamine B assay relative to control; format: functional; settings: read-out: Activity
[2] = tested on: NCI-H23; assay: Growth inhibition of human NCI-H23 cells assessed as cell growth at 0.005 uM incubated for 48 hrs by sulforhodamine B assay relative to control; format: functional; settings: NCI-H23, 48 h, read-out: Activity
[3] = tested on: HCT-116; assay: Growth inhibition of human HCT116 cells assessed as cell growth at 0.005 uM incubated for 48 hrs by sulforhodamine B assay relative to control; format: functional; settings: HCT-116, 48 h, read-out: Activity
[4] = tested on: M14; assay: Growth inhibition of human M14 cells assessed as cell growth at 0.005 uM incubated for 48 hrs by sulforhodamine B assay relative to control; format: functional; settings: M14, 48 h, read-out: Activity
[5] = tested on: OVCAR-3; assay: Growth inhibition of human OVCAR3 cells assessed as cell growth at 0.005 uM incubated for 48 hrs by sulforhodamine B assay relative to control; format: functional; settings: OVCAR-3, 48 h, read-out: Activity
[6] = tested on: MCF7; assay: Growth inhibition of human MCF7 cells assessed as cell growth at 0.005 uM incubated for 48 hrs by sulforhodamine B assay relative to control; format: functional; settings: MCF7, 48 h, read-out: Activity
[7] = tested on: NCI-H322M; assay: Growth inhibition of human NCI-H322M cells assessed as cell growth at 0.05 uM incubated for 48 hrs by sulforhodamine B assay relative to control; format: functional; settings: read-out: Activity
[8] = tested on: SW-620; assay: Growth inhibition of human SW620 cells assessed as cell growth at 0.05 uM incubated for 48 hrs by sulforhodamine B assay relative to control; format: functional; settings: SW-620, 48 h, read-out: Activity
[9] = tested on: OVCAR-8; assay: Growth inhibition of human OVCAR8 cells assessed as cell growth at 0.05 uM incubated for 48 hrs by sulforhodamine B assay relative to control; format: functional; settings: OVCAR-8, 48 h, read-out: Activity
[10] = tested on: RXF 393; assay: Growth inhibition of human RXF393 cells assessed as cell growth at 0.05 uM incubated for 48 hrs by sulforhodamine B assay relative to control; format: functional; settings: RXF 393, 48 h, read-out: Activity
[11] = tested on: T47D; assay: Growth inhibition of human T47D cells assessed as cell growth at 0.05 uM incubated for 48 hrs by sulforhodamine B assay relative to control; format: functional; settings: read-out: Activity
[12] = tested on: SR; assay: Growth inhibition of human SR cells assessed as cell growth at 0.5 uM incubated for 48 hrs by sulforhodamine B assay relative to control; format: functional; settings: read-out: Activity
[13] = tested on: NCI-H522; assay: Growth inhibition of human NCI-H522 cells assessed as cell growth at 0.5 uM incubated for 48 hrs by sulforhodamine B assay relative to control; format: functional; settings: NCI-H522, 48 h, read-out: Activity
[14] = tested on: OVCAR-3; assay: Growth inhibition of human OVCAR3 cells assessed as cell growth at 0.5 uM incubated for 48 hrs by sulforhodamine B assay relative to control; format: functional; settings: OVCAR-3, 48 h, read-out: Activity
[15] = tested on: SK-OV-3; assay: Growth inhibition of human SKOV3 cells assessed as cell growth at 0.5 uM incubated for 48 hrs by sulforhodamine B assay relative to control; format: functional; settings: SK-OV-3, 48 h, read-out: Activity
[16] = tested on: HL-60(TB); assay: Growth inhibition of human HL-60(TB) cells assessed as cell growth at 5 uM incubated for 48 hrs by sulforhodamine B assay relative to control; format: functional; settings: HL-60, 48 h, read-out: Activity
[17] = tested on: COLO 205; assay: Growth inhibition of human COLO205 cells assessed as cell growth at 5 uM incubated for 48 hrs by sulforhodamine B assay relative to control; format: functional; settings: COLO 205, 48 h, read-out: Activity
[18] = tested on: HCC 2998; assay: Growth inhibition of human HCC2998 cells assessed as cell growth at 5 uM incubated for 48 hrs by sulforhodamine B assay relative to control; format: functional; settings: HCC 2998, 48 h, read-out: Activity
[19] = tested on: SNB-75; assay: Growth inhibition of human SNB75 cells assessed as cell growth at 5 uM incubated for 48 hrs by sulforhodamine B assay relative to control; format: functional; settings: SNB-75, 48 h, read-out: Activity
[20] = tested on: UACC-257; assay: Growth inhibition of human UACC257 cells assessed as cell growth at 5 uM incubated for 48 hrs by sulforhodamine B assay relative to control; format: functional; settings: UACC-257, 48 h, read-out: Activity
[21] = tested on: SR; assay: Growth inhibition of human SR cells assessed as cell growth at 50 uM incubated for 48 hrs by sulforhodamine B assay relative to control; format: functional; settings: read-out: Activity
[22] = tested on: HCT-15; assay: Growth inhibition of human HCT15 cells assessed as cell growth at 50 uM incubated for 48 hrs by sulforhodamine B assay relative to control; format: functional; settings: HCT-15, 48 h, read-out: Activity
[23] = tested on: LOX IMVI; assay: Growth inhibition of human LOXIMVI cells assessed as cell growth at 50 uM incubated for 48 hrs by sulforhodamine B assay relative to control; format: functional; settings: read-out: Activity
[24] = tested on: MDA-MB-435; assay: Growth inhibition of human MDA-MB-435 cells assessed as cell growth at 50 uM incubated for 48 hrs by sulforhodamine B assay relative to control; format: functional; settings: MDA-MB-435, 48 h, read-out: Activity
[25] = tested on: SK-MEL-28; assay: Growth inhibition of human SK-MEL-28 cells assessed as cell growth at 50 uM incubated for 48 hrs by sulforhodamine B assay relative to control; format: functional; settings: SK-MEL-28, 48 h, read-out: Activity
[26] = tested on: UACC-257; assay: Growth inhibition of human UACC257 cells assessed as cell growth at 50 uM incubated for 48 hrs by sulforhodamine B assay relative to control; format: functional; settings: UACC-257, 48 h, read-out: Activity
[27] = tested on: IGROV-1; assay: Growth inhibition of human IGROV1 cells assessed as cell growth at 50 uM incubated for 48 hrs by sulforhodamine B assay relative to control; format: functional; settings: IGROV-1, 48 h, read-out: Activity
[28] = tested on: TK-10; assay: Growth inhibition of human TK10 cells assessed as cell growth at 50 uM incubated for 48 hrs by sulforhodamine B assay relative to control; format: functional; settings: TK-10, 48 h, read-out: Activity
[29] = target: T1, Serine/threonine-protein kinase B-raf (Homo sapiens, UniProt P15056); assay: Inhibition of human BRAF at 10 uM using MEK1 as substrate in presence of [33P]ATP by Hotspot assay relative to control
[30] = target: T1, Serine/threonine-protein kinase B-raf; assay: Inhibition of human BRAF using MEK1 as substrate in presence of [33P]ATP by Hotspot assay
[31] = target: Epidermal growth factor receptor (Homo sapiens) (UniProt P00533); assay: Inhibition of human EGFR at 10 uM using poly[Glu:Tyr] (4:1) as substrate in presence of [33P]ATP by Hotspot assay relative to control
[32] = target: Platelet-derived growth factor receptor beta (Homo sapiens) (UniProt P09619); assay: Inhibition of human PDGFRbeta at 10 uM using poly[Glu:Tyr] (4:1) as substrate in presence of [33P]ATP by Hotspot assay relative to control
[33] = tested on: MDA-MB-468; assay: Growth inhibition of human MDA-MB-468 cells assessed as cell growth at 10 uM incubated for 48 hrs by sulforhodamine B assay relative to control; format: functional; settings: MDA-MB-468, 48 h, read-out: Activity

T1 sequence (P15056 whole entry): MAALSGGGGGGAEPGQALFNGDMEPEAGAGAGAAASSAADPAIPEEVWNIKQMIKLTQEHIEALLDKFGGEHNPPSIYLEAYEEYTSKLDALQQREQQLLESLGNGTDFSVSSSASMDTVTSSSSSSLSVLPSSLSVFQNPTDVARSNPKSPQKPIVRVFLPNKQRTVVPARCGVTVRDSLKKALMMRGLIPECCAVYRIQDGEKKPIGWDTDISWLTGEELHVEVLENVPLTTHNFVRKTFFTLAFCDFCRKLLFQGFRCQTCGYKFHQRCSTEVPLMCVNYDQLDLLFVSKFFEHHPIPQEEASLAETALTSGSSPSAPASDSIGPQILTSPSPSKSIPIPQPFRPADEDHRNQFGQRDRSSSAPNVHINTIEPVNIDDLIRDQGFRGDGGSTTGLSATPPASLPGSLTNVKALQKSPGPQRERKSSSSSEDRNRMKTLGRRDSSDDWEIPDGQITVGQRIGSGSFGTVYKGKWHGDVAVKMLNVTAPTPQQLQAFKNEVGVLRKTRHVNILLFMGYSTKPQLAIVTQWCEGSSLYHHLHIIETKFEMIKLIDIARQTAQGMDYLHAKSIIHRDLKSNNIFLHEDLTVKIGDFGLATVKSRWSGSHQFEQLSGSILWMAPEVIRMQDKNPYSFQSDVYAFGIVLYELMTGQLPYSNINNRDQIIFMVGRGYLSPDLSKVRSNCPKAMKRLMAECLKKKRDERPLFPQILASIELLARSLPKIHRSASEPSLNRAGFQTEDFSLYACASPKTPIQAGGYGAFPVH
Epidermal growth factor receptor (Homo sapiens), sequence (P00533 whole entry): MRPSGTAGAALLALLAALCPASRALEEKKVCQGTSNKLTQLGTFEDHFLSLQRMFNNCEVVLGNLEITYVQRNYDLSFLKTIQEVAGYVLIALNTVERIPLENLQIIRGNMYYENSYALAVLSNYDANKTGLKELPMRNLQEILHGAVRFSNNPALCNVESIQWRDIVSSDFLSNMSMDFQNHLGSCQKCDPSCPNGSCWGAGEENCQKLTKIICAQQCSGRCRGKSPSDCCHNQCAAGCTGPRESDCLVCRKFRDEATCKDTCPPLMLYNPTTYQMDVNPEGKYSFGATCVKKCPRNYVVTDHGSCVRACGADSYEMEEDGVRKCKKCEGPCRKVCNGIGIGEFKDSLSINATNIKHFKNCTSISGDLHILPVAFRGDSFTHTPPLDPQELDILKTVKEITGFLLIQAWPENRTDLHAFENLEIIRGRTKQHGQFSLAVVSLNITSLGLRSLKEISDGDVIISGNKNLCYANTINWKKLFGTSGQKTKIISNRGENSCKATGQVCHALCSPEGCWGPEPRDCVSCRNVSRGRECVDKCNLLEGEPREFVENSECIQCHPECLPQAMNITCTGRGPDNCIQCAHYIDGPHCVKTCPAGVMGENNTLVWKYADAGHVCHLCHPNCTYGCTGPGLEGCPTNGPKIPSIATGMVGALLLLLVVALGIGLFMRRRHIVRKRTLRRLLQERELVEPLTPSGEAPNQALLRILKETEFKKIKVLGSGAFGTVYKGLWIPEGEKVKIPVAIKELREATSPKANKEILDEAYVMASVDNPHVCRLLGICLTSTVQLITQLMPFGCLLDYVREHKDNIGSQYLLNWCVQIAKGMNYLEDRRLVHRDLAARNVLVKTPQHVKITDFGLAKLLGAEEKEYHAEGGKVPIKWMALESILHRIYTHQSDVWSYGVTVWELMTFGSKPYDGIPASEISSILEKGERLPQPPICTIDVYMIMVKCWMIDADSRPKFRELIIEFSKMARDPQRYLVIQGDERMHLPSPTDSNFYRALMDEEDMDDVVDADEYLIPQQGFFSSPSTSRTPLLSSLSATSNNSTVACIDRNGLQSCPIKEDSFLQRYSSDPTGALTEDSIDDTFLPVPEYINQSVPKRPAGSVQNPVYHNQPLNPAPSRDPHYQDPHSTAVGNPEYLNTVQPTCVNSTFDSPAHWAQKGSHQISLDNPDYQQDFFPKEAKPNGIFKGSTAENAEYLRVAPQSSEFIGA
Platelet-derived growth factor receptor beta (Homo sapiens), sequence (P09619 whole entry): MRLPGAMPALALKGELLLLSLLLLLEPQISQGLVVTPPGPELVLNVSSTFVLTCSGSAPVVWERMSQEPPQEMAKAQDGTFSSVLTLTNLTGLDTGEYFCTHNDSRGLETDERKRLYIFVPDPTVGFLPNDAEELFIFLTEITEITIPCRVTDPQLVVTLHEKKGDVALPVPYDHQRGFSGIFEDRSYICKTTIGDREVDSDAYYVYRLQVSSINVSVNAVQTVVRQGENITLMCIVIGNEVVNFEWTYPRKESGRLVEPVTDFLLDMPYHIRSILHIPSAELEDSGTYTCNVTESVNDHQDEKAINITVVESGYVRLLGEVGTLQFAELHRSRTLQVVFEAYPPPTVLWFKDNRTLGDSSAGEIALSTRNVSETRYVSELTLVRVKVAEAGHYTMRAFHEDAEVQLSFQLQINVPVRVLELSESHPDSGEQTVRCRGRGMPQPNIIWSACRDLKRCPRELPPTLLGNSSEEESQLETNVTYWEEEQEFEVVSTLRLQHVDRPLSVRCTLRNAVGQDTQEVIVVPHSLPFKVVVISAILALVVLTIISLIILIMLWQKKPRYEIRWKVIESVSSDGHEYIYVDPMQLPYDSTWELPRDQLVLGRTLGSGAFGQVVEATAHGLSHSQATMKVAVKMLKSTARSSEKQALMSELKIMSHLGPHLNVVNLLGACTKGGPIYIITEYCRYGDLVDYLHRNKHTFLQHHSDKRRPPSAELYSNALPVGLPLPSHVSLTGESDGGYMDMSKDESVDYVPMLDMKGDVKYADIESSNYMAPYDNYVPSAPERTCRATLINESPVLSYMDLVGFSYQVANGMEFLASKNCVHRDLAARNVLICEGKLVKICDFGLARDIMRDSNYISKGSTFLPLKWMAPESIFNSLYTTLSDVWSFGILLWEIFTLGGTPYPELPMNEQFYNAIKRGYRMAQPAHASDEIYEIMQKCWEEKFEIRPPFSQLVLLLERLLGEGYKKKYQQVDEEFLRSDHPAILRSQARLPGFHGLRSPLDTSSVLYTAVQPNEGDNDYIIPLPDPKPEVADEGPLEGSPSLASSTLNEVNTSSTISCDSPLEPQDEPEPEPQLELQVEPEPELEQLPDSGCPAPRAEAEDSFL

**Q.** Which results are given for COc1cc2cc(Oc3ccc(NC(=O)Nc4cccc(C(F)(F)F)c4)cc3)c(C)nc2cc1OC?
**A.** growth at 0.005 µM [1]: 105%; growth at 0.005 µM [2]: 96%; growth at 0.005 µM [3]: 100%; growth at 0.005 µM [4]: 98%; growth at 0.005 µM [5]: 101%; growth at 0.005 µM [6]: 90%; growth at 0.05 µM [7]: 96%; growth at 0.05 µM [8]: 98%; growth at 0.05 µM [9]: 103%; growth at 0.05 µM [10]: 105%; growth at 0.05 µM [11]: 101%; growth at 0.5 µM [12]: 91%; growth at 0.5 µM [13]: 90%; growth at 0.5 µM [14]: 105%; growth at 0.5 µM [15]: 101%; growth at 5 µM [16]: -13%; growth at 5 µM [17]: -48%; growth at 5 µM [18]: 26%; growth at 5 µM [19]: 5%; growth at 5 µM [20]: -13%; growth at 50 µM [21]: -57%; growth at 50 µM [22]: -10%; growth at 50 µM [23]: -99%; growth at 50 µM [24]: -29%; growth at 50 µM [25]: -74%; growth at 50 µM [26]: -75%; growth at 50 µM [27]: -14%; growth at 50 µM [28]: -46%

**Q.** COc1cc2cc(Oc3ccc(NC(=O)Nc4ccc(Cl)c(C(F)(F)F)c4)cc3)c(C)nc2cc1OC was tested. Which inhibition [29] did it give?
**A.** 74.2%

**Q.** And the IC50 [30]?
**A.** 1.33 µM

**Q.** What about the inhibition [31] of the same compound?
**A.** -0.3%

**Q.** And the inhibition [32]?
**A.** 29.5%

**Q.** How did the growth at 10 µM [33] turn out when COc1cc2cc(Oc3ccc(NC(=O)Nc4cc(C(F)(F)F)cc(C(F)(F)F)c4)cc3)c(C)nc2cc1OC was run?
**A.** -36%
